Emax and EC50 data for 23 compounds are collected here from patent US8653102B2, “Substituted 2-oxo- and 2-thioxo-dihydroquinoline-3-carboxamides as KCNQ2/3 modulators” (Gruenenthal GmbH, priority 2010, dated 2014).

This experiment has as its target T1, KCNQ2/3 channels (Homo sapiens, UniProt O43525+O43526).
T1 construct: expressed in transfected cells; host or cells: CHO-K1 cells kept under selection antibiotics
In words: Fluorescence assay using a voltage sensitive dye (fluorimetry). Type of experiment: cell-based. As to conditions: CHO-K1 cells expressing KCNQ2/3 channels; for Emax: relative to retigabine (RTG) = 100%, read-out: Fluorimetry % efficacy (RTG = 100%). The procedure: Pharmacological Experiments Method I. Fluorescence Assay Using a Voltage Sensitive Dye (Fluorimetry)
[…] CHO-K1 cells expressing KCNQ2/3 channels are cultivated adherently at 37° C., 5% CO2 and 95% humidity in cell culture bottles (e.g. 80 cm^2 TC flasks, Nunc) with DMEM-high glucose (Sigma Aldrich, D7777) including 10% FCS (PAN Biotech, e.g. 3302-P270521) or alternatively MEM Alpha Medium (1×, liquid, Invitrogen, #22571), 10% fetal calf serum (FCS) (Invitrogen, #10270-106, heat-inactivated) and the necessary selection antibiotics.
Before being sown out for the measurements, the cells are washed with 1×DPBS buffer Ca^2+/Mg^2+-free (e.g. Invitrogen, #14190-094) and detached from the bottom of the culture vessel by using Accutase (PAA Laboratories, #L11-007) (incubation with Accutase for 15 min at 37° C.). The cell number is determined using a CASY™ cell counter (TCC, Schärfe System). Depending on the optimal density for each individual cell line, 20,000-30,000 cells/well/100 μl are seeded onto 96-well Corning™ CellBIND™ assay plates (Flat Clear Bottom Black Polystyrene Microplates, #3340). Freshly seeded cells are then left to settle for one hour at room temperature, followed by incubation for 24 hours at 37° C., 5% CO2 and 95% humidity.
The voltage-sensitive fluorescent dye from the Membrane Potential Assay Kit (Red™ Bulk format part R8123 for FLIPR, MDS Analytical Technologies™) is prepared by dissolving the contents of one vessel Membrane Potential Assay Kit Red Component A in 200 ml of extracellular buffer (ES buffer, 120 mM NaCl, 1 mM KCl, 10 mM HEPES, 2 mM CaCl2, 2 mM MgCl2, 10 mM glucose; pH 7.4). After removal of the nutrient medium, the cells are washed once with 200 μl of ES buffer, then loaded for 45 min at room temperature in 100 μl of dye solution in the dark.
Fluorescence measurements are carried out in a BMG Labtech FLUOstar™, BMG Labtech NOVOstar™ or BMG Labtech POLARstar™ instrument (525 nm excitation, 560 nm emission, Bottom Read mode). After incubation with the dye, 50 μl of the test substances in the desired concentrations, or 50 μl of ES buffer for control purposes, are applied to the wells of the assay plate and incubated for 30 min at room temperature while being shielded from light. The fluorescence intensity of the dye is then measured for 5 min and the fluorescence value F1 of each well is thus determined at a given, constant time. 15 μl of a KCl solution are then added to each well (final concentration of potassium ions 92 mM). The change in fluorescence intensity is subsequently monitored until all the relevant values have been obtained (mainly 5-30 min). At a given time post KCl application, a fluorescence value F2 is determined, in this case at the time of the fluorescence peak.
For calculation, the fluorescence intensity F2 is corrected for the fluorescence intensity F1, and the activity (ΔF/F) of the target compound on the potassium channel is determined as follows:
In order to determine whether a substance has agonistic activity,
A substance has an agonistic activity on the potassium channel if
[formula] increases dose dependently.
Calculations of EC50 and IC50 values are carried out with the aid of ‘Prism v4.0’ software (GraphPad Software™).

In the case of `Cc1c(C(=O)NCc2cccc(F)c2)c(=O)n(CCC(C)C)c2cc(C(F)(F)F)ccc12` [Example 12, N-[(3-fluorophenyl)-methyl]-4-methyl-1-(3-methyl-butyl)-2-oxo-7-(trifluoromethyl)-1H-quinoline-3-carboxylic acid amide], the Emax came out at 33%.

Turning to `COCCn1c(=O)c(C(=O)NCc2cccc(F)c2)c(C)c2ccccc21` [Example 10, N-[(3-fluorophenyl)-methyl]-1-(2-methoxy-ethyl)-4-methyl-2-oxo-1H-quinoline-3-carboxylic acid amide], the Emax came out at 22%.

Consider `Cc1c(C(=O)N(C)c2cccc(F)c2)c(=O)n(CC(=O)O)c2cc(C(F)(F)F)ccc12` [Example 28, 2-[3-[(3-fluorophenyl)-methyl-carbamoyl]-4-methyl-2-oxo-7-(trifluoromethyl)-1H-quinolin-1-yl]-acetic acid], for which the Emax stood at 16%.

Consider `CCn1c(=O)c(C(=O)NCc2ccc(F)cc2)c(C)c2ccc(C(F)(F)F)cc21` [Example 8, 1-ethyl-N-[(4-fluorophenyl)-methyl]-4-methyl-2-oxo-7-(trifluoromethyl)-1H-quinoline-3-carboxylic acid amide], for which the EC50 was 401 nM and the Emax was found to be 175%.

As to `Cc1c(C(=O)NCc2ccc(F)cc2)c(=O)n(C)c2cc(C#N)ccc12` [Example 21, 7-cyano-N-[(4-fluorophenyl)-methyl]-1,4-dimethyl-2-oxo-1H-quinoline-3-carboxylic acid amide], a half-maximal response (EC50) required 837 nM and the Emax amounted to 136%.

Turning to `COCC(C)n1c(=O)c(C(=O)NCc2cccc(F)c2)c(C)c2ccc(C(F)(F)F)cc21` (stereo not shown) [Example 35, N-[(3-fluorophenyl)-methyl]-1-(2-methoxy-1-methyl-ethyl)-4-methyl-2-oxo-7-(trifluoromethyl)-1H-quinoline-3-carboxylic acid amide], it took 114 nM to reach a half-maximal effect (EC50) and the Emax came to 118%.

Consider `Cc1c(C(=O)NCc2cccc(F)c2)c(=O)n(CCCC(C)C)c2cc(C(F)(F)F)ccc12` [Example 13, N-[(3-fluorophenyl)-methyl]-4-methyl-1-(4-methyl-pentyl)-2-oxo-7-(trifluoromethyl)-1H-quinoline-3-carboxylic acid amide], for which the Emax is 3%.

Turning to `Cc1c(C(=O)NCc2cccc(F)c2)c(=O)n(C)c2cc(F)ccc12` [Example 34, 7-fluoro-N-[(3-fluorophenyl)-methyl]-1,4-dimethyl-2-oxo-1H-quinoline-3-carboxylic acid amide], the EC50 stood at 3140 nM and the Emax was found to be 105%.

Consider `CCn1c(=O)c(C(=O)NCc2cccc(F)c2)c(C)c2ccc(C(F)(F)F)cc21` [Example 5, 1-ethyl-N-[(3-fluorophenyl)-methyl]-4-methyl-2-oxo-7-(trifluoromethyl)-1H-quinoline-3-carboxylic acid amide], for which the response was half-maximal at 381 nM (EC50) and the Emax is 173%.

As to `CCCCn1c(=O)c(C(=O)NCc2cccc(F)c2)c(C)c2ccc(C(F)(F)F)cc21` [Example 2, 1-butyl-N-[(3-fluorophenyl)-methyl]-4-methyl-2-oxo-7-(trifluoromethyl)-1H-quinoline-3-carboxylic acid amide], the midpoint of the response, the EC50, lay at 235 nM and the Emax came out at 90%.

As to `CCC(COC)n1c(=O)c(C(=O)NCc2cccc(F)c2)c(C)c2ccc(C(F)(F)F)cc21` (stereo not shown) [Example 30, N-[(3-fluorophenyl)-methyl]-1-[1-(methoxymethyl)-propyl]-4-methyl-2-oxo-7-(trifluoromethyl)-1H-quinoline-3-carboxylic acid amide], the 50% effective concentration (EC50) worked out at 193 nM and the Emax was found to be 133%.

For `Cc1c(C(=O)NCc2cccc(F)c2)c(=O)n(C)c2cc(C#N)ccc12` [Example 20, 7-cyano-N-[(3-fluorophenyl)-methyl]-1,4-dimethyl-2-oxo-1H-quinoline-3-carboxylic acid amide], the EC50 amounted to 1270 nM and the Emax was 143%.

For `COCCn1c(=O)c(C(=O)NCCCC(C)(C)C)c(C)c2ccc(C(F)(F)F)cc21` [Example 24, N-(4,4-dimethyl-pentyl)-1-(2-methoxy-ethyl)-4-methyl-2-oxo-7-(trifluoromethyl)-1H-quinoline-3-carboxylic acid amide], the midpoint of the response, the EC50, lay at 167 nM and the Emax worked out at 231%.

As for `COCCn1c(=O)c(C(=O)NCc2cccc(F)c2)c(C)c2ccc(C#N)cc21` [Example 22, 7-cyano-N-[(3-fluorophenyl)-methyl]-1-(2-methoxy-ethyl)-4-methyl-2-oxo-1H-quinoline-3-carboxylic acid amide], a half-maximal response (EC50) required 3140 nM and the Emax was 102%.

`COCCOCCn1c(=O)c(C(=O)NCc2cccc(F)c2)c(C)c2ccc(C(F)(F)F)cc21` [Example 15, N-[(3-fluorophenyl)-methyl]-1-[2-(2-methoxy-ethoxy)-ethyl]-4-methyl-2-oxo-7-(trifluoromethyl)-1H-quinoline-3-carboxylic acid amide]: the half-maximal effective concentration (EC50) amounted to 2020 nM and the Emax turned out to be 78%.

In the case of `Cc1c(C(=O)NCc2cccc(F)c2)c(=O)n(CCO)c2cc(C(F)(F)F)ccc12` [Example 38, N-[(3-fluorophenyl)-methyl]-1-(2-hydroxy-ethyl)-4-methyl-2-oxo-7-(trifluoromethyl)-1H-quinoline-3-carboxylic acid amide], the EC50 is 1830 nM and the Emax was found to be 160%.

Take `Cn1c(=O)c(C(=O)NCc2cccc(F)c2)c(C(F)(F)F)c2ccccc21` [Example 42, N-[(3-fluorophenyl)-methyl]-1-methyl-2-oxo-4-(trifluoromethyl)-1H-quinoline-3-carboxylic acid amide]: a half-maximal response (EC50) required 4990 nM and the Emax was 103%.

Regarding `Cc1c(C(=O)NCc2cccc(F)c2)c(=O)n(C(C)C)c2cc(C(F)(F)F)ccc12` [Example 40, N-[(3-fluorophenyl)-methyl]-1-isopropyl-4-methyl-2-oxo-7-(trifluoromethyl)-1H-quinoline-3-carboxylic acid amide], the concentration giving a half-maximal response (EC50) was 75 nM and the Emax came to 145%.

As for `Cc1c(C(=O)NCc2cccc(F)c2)c(=O)n(C)c2ccccc12` [Example 9, N-[(3-fluorophenyl)-methyl]-1,4-dimethyl-2-oxo-1H-quinoline-3-carboxylic acid amide], the 50% effective concentration (EC50) is 5690 nM and the Emax was found to be 63%.

Turning to `COCCCn1c(=O)c(C(=O)NCc2cccc(F)c2)c(C)c2ccc(C(F)(F)F)cc21` [Example 14, N-[(3-fluorophenyl)-methyl]-1-(3-methoxy-propyl)-4-methyl-2-oxo-7-(trifluoromethyl)-1H-quinoline-3-carboxylic acid amide], the 50% effective concentration (EC50) was 992 nM and the Emax worked out at 61%.

Take `COCCn1c(=O)c(C(=O)NCc2ccc(F)cc2)c(C)c2ccc(C#N)cc21` [Example 23, 7-cyano-N-[(4-fluorophenyl)-methyl]-1-(2-methoxy-ethyl)-4-methyl-2-oxo-1H-quinoline-3-carboxylic acid amide]: the EC50 was found to be 3890 nM and the Emax amounted to 105%.

`COC(=O)CCn1c(=O)c(C(=O)N(C)c2cccc(F)c2)c(C)c2ccc(C(F)(F)F)cc21` [Example 27, 3-[3-[(3-fluorophenyl)-methyl-carbamoyl]-4-methyl-2-oxo-7-(trifluoromethyl)-1H-quinolin-1-yl]-propionic acid methyl ester]: the Emax is 22%.

In the case of `Cc1c(C(=O)N(C)c2cccc(F)c2)c(=O)n(CCC(=O)O)c2cc(C(F)(F)F)ccc12` [Example 29, 3-[3-[(3-fluorophenyl)-methyl-carbamoyl]-4-methyl-2-oxo-7-(trifluoromethyl)-1H-quinolin-1-yl]-propionic acid], the Emax worked out at 6%.
